Laboratory results as given in patent publication US20090130064A1, “DIFFERENTIATION OF STEM CELLS AND STABILIZATION OF PHENOTYPICAL PROPERTIES OF PRIMARY CELLS” (priority 2004, published 2009).

Legend:
rat BMSC [1] = experiment: Albumin ELISA, ALB secretion by rat BMSC-derived hepatocyte-like cells; assay type: cell-based
Method: Then, cells were cultivated in the presence of liver-specific (LSP) cytokines either as a cocktail [basal medium+10 ng/ml FGF-4 (fibroblast growth factor type 4), 20 ng/ml HGF (hepatic growth factor) (all from R&D), 1×ITS (insulin, transferrin, selenious acid) and 0.05 μM Dex (dexamethasone) (all from Sigma)] or separately (until day 3: basal medium+10 ng/ml FGF-4; from days 3 to 6: basal medium+20 ng/ml HGF; from day 6 on: basal medium+20 ng/ml HGF+1×ITS and 0.05 μM Dex). […] The culture media were changed every three days.
ALB concentrations secreted into the media were analysed by competitive enzyme-linked immunosorbent assay (ELISA) as described (Koebe et al. Int J Artif Organs 17: 95-106, 1994). The ALB levels were normalized with respect to the media used.

rat BMSC [2] = experiment: DNA synthesis by [methyl-3H] thymidine incorporation in differentiating rat BMSC; assay type: cell-based
Method: [methyl-3H] thymidine (25 μCiμmol, 2 μCi/ml) incorporation into trichloroacetic acid precipitated-DNA (Amersham Inc) was measured.
BMSC were, 24 h after splitting; cultivated in the presence of LSP cytokines, added either as a cocktail or separately on 10 ng/ml FN at 2.465 10^3 cells/cm^2. […] Media were changed every three days. Samples were taken 2, 4, 6, 12 and 18 h after splitting or media change. Cells were stimulated for 2 h before sampling with 2 μCi [methyl-^3H] thymidine (Amersham Pharmacia Biotech)/ml medium. [methyl-^3H] thymidine incorporation was measured using a scintillation counter (Wallac 1410) with a counting efficiency of 62.4%.

caspase-3, Bid and Bax = experiment: Western blotting of caspase-3 activation, Bid and Bax in primary rat hepatocytes; assay type: cell-based
Text: (§1) Male outbred Sprague-Dawley rats (200-300 g, Iffa Credo, Brussels, Belgium) were kept under controlled environmental conditions (12-hr light-dark cycle) and fed a standard diet (Animafabo A04, water ad libitum). Hepatocytes were isolated by a two-step collagenase perfusion as described (De Smet et al. In ‘Methods in Molecular Biology, Vol. 107: Cytochrome P450 Protocols’, Philips I R and Shephard E A, eds., pp 295-301, Humana Press, Totowa, 1998). Cell liability was >90% as determined by trypan blue exclusion. Cells (0.4×10^5 cells/cm^2) were plated in MEM/M199 (3:1), containing BSA (1 mg/ml), bovine insulin (10 μg/ml), L-glutamine (2 mM), FBS (10% v/v) and antibiotics (7.3 IU/ml benzyl penicillin, 50 μg/ml streptomycin sulphate, 50 μg/ml kanamycin monosulphstep and 10 μg/ml sodium ampicillin). Four hours after plating, serum-containing medium was removed and fresh serum-free medium was added to the cultures. Culture medium was refreshed daily. EGF (50 ng/ml) was added 4 hours after plating. A 100 mM stock solution of 4-Me2N-BAVAH was prepared in ethanol.
Total cell extracts were prepared as described previously (Papeleu et al. J Hepatol 39: 374-382, 2003) and proteins (25 or 50 μg per lane) were separated electrophoretically by SDS-PAGE and electroblotted onto nitrocellulose membranes (Amersham Pharmacia Biotech, Buckinghamshire, UK). Equal sample loading was verified by immersion of the membranes in Ponceau S. Unspecific binding sites were blocked with 5% skim milk/Tris-buffered saline. Incubations with primary antibodies were performed overnight at 4° C. under gentle shaking. Proteins were detected using the ECL detection system (Amersham Pharmacia Biotech, Buckinghamshire, UK) according to the manufacturer's recommendations.

Pak1 = experiment: Western blotting of Pak1 in primary rat hepatocytes; assay type: cell-based; conditions: 50 μM, sustained treatment, EGF-stimulated
Text: as §1, with “EGF (50 ng/ml) was added 4 hours after plating. A 100 mM stock solution of 4-Me2N-BAVAH was prepared in ethanol.” left out
Total cell extracts were prepared as described previously (Papeleu et al. J Hepatol 39: 374-382, 2003) and proteins (25 or 50 μg per lane) were separated electrophoretically by SDS-PAGE and electroblotted onto nitrocellulose membranes (Amersham Pharmacia Biotech, Buckinghamshire, UK). […] Proteins were detected using the ECL detection system (Amersham Pharmacia Biotech, Buckinghamshire, UK) according to the manufacturer's recommendations.

HDAC = conditions: cited from earlier work
CYP 2B = experiment: Western blot of CYP 2B in primary rat hepatocytes; assay type: cell-based; conditions: 50 μM
Text: as §1, with “(Animalabo” for “(Animafabo”, “viability” for “liability”, “monosulphate” for “monosulphstep”

primary rat hepatocytes = experiment: Biotransformation in hepatocyte culture by HPLC with ESI-MS/UV; assay type: in vitro ADME; conditions: 50 μM; after 20 hours
Method: Cells were cultured for 24 hours in the presence of EGF, alone or in combination with 4-Me2N-BAVAH; culture media were renewed and the expression of p21 was subsequently analyzed at short time intervals (0.5, 1, 6 and 24 hours) (FIG. 18B). In untreated EGF-stimulated hepatocytes, cyclin D1 and p21 proteins were induced 0.5 hour after medium renewal. A maximum was reached 24 hours later, namely after 48 hours of culture. As expected, no cyclin D1 and p21 proteins could be detected in 4-Me2N-BAVAH-treated cells, not even after short exposure periods (FIG. 18B). In addition, we quantified the biotransformation rate of 4-Me2N-BAVAH using high-performance liquid chromatography (HPLC) combined with simultaneous electrospray ionization mass spectrometric (ESI-MS)/UV detection. […] These findings clearly indicate that 4-Me2N-BAVAH interferes with the mitogenic effects of EGF resulting in a failure to induce cyclin D1 and p21 expression.

[3] = 1 μM TSA first from 168 h cultivation on, sequential

| Structure (SMILES) | cell death (rat BMSC [1]; cocktail of LSP cytokines + TSA, from day 16 on) | increase of the ALB secretion from day 15 to 17 (rat BMSC [1]; sequential cytokines + 1 μM TSA) [fold] | ALB secretion (rat BMSC [1]; sequential cytokines + 1 μM TSA, from day 15 on) | cytotoxicity by microscopic analysis (rat BMSC [2]) | cell death by microscopic analysis (rat BMSC [2]; 1 μM TSA added from 24 and 96 h on, sequential) | [methyl-3H] thymidine incorporation (rat BMSC [2]; [3]) | cell death by microscopic analysis (rat BMSC [2]; [3]) | DNA synthesis compared with control (sequential without TSA) (rat BMSC [2]; 1 μM TSA from 24, 96 and 168 h on, sequential LSP cytokines) | DNA synthesis compared with control (cocktail-TSA) (rat BMSC [2]; 1 μM TSA from 24 and 96 h of cultivation on, cocktail of LSP cytokines) | cell death by microscopic analysis (rat BMSC [2]; 1 μM TSA from 168 h, cocktail, day 7) | [methyl-3H] thymidine incorporation (DNA synthesis) (rat BMSC [2]; 5 and 25 μM TSA) | [methyl-3H] thymidine incorporation (rat BMSC [2]; first addition of 1 μM TSA from 168 h of cultivation on, cocktail) | expression of pro-apoptotic proteins Bid and Bax (caspase-3, Bid and Bax; 50 μM) | cleavage of pro-caspase-3 into active p18 fragments (caspase-3, Bid and Bax; 24 and 48 hours of culture) | cleavage of pro-caspase-3 into active p18 fragments (caspase-3, Bid and Bax; after 72 hours of treatment) | cellular levels of Pak1 (Pak1) | HDAC inhibition, concentration range (HDAC) | expression of CYP 2B (CYP 2B) | metabolites detected in culture (primary rat hepatocytes) |
| --- | --- | --- | --- | --- | --- | --- | --- | --- | --- | --- | --- | --- | --- | --- | --- | --- | --- | --- | --- |
| CC(C=CC(=O)NO)=CC(C)C(=O)c1ccc(N(C)C)cc1 (stereo not shown) [TSA] | cell death had occurred | 2.5 | significantly upregulated | cytotoxicity | cell death | no [methyl-^3H] thymidine incorporation | No death cells were observed | decrease of the DNA synthesis | increase of the DNA synthesis | no cell death had occurred | no incorporation | no [methyl-^3H] thymidine | – | – | – | – | – | – | – |
| CN(C)c1ccc(C(=O)NCCCCC(=O)NO)cc1 [4-Me2N-BAVAH, 5-(4-dimethylaminobenzoyl)-aminovaleric acid hydroxamide] | – | – | – | – | – | – | – | – | – | – | – | – | decreased the expression | significantly lower | completely prevented | decrease in the cellular levels of Pak1 | micromolar range | Increased Expression | No metabolites of the compound could be detected |
